According to ChEMBL document CHEMBL2412988, “Synthesis, pH-dependent, and plasma stability of meropenem prodrugs for potential use against drug-resistant tuberculosis” (Bioorg Med Chem, 2013):

System: Mycobacterium tuberculosis
Test: Antimycobacterial activity against extensively drug-resistant Mycobacterium tuberculosis in presence of clavulanate
Format: functional

`C[C@@H](O)[C@H]1C(=O)N2C(C(=O)O)=C(S[C@@H]3CN[C@H](C(=O)N(C)C)C3)[C@H](C)[C@H]12` [MEROPENEM] showed an MIC of 0.03 µg/mL.
